Measured values taken from PubChem BioAssay AID298 (DTP/NCI, 2004).
Values joined by “and” are separate entries in the source; they are usually repeats but may differ in a detail not shown here. Equal entries are not always repeated. Inconclusive results are not listed.

System: MX-1 breast xenograft, intrarenal, nude mice, tumor weight
Test: NCI In Vivo Anticancer Drug Screen. Data for tumor model Human Mammary Carcinoma MX-1 Xenograft (intrarenal inoculation) in NU/NU BALB/C (nude) mice
Settings: endpoint: mean tumor weight change, higher = larger tumour
How it was run: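 T/C readout: treated-group measurement over vehicle-control measurement, using tumor size or survival in tumor-bearing mice.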

[1] = dose: 600.0 mg/kg/injection, schedule: Q04DX003 (sc), vehicle: saline with Tween-80

O=c1[nH]cc(F)c(=O)[nH]1
T/C (dose: 50.0 mg/kg/injection, schedule: Q04DX003 (ip), vehicle: saline): 43 % of control

Clc1cccc(Cl)c1C(Nc1nncs1)Nc1nncs1
T/C (dose: 100.0 mg/kg/injection, schedule: Q04DX003 (ip), vehicle: saline with Tween-80): 94 % of control
T/C (dose: 200.0 mg/kg/injection, schedule: Q04DX003 (ip), vehicle: saline with Tween-80): 73 % of control
T/C (dose: 400.0 mg/kg/injection, schedule: Q04DX003 (ip), vehicle: saline with Tween-80): 44 % of control

CC(=O)OCN(C)C=O
T/C (dose: 300.0 mg/kg/injection, schedule: Q01DX010 (ip), vehicle: suspension in saline): 105 % of control
T/C (dose: 600.0 mg/kg/injection, schedule: Q01DX010 (ip), vehicle: suspension in saline): 75 % of control
T/C (dose: 600.0 mg/kg/injection, schedule: Q01DX010 (sc), vehicle: saline): 88 % of control
T/C (dose: 1200.0 mg/kg/injection, schedule: Q01DX010 (sc), vehicle: saline): 104 % of control
T/C (dose: 2400.0 mg/kg/injection, schedule: Q01DX010 (sc), vehicle: saline): 78 % of control

O=C[C@@H](CO)O[C@H](C=O)c1c[nH]c(=O)[nH]c1=O
T/C (dose: 25.0 mg/kg/injection, schedule: Q04DX003 (ip), vehicle: saline): 71 % of control
T/C (dose: 37.5 mg/kg/injection, schedule: Q04DX003 (ip), vehicle: saline): 54 % of control
T/C (dose: 100.0 mg/kg/injection, schedule: Q04DX003 (ip), vehicle: saline): 5 % of control and 9 % of control and 28 % of control
T/C (dose: 125.0 mg/kg/injection, schedule: Q04DX003 (ip), vehicle: saline): 4 % of control and 7 % of control

COc1ccc(CC2C(=O)NC(C)C(=O)N(C)C3Cc4ccc(cc4)Oc4cc(ccc4O)CC(C(=O)NC(C)C(=O)NC(C)C(=O)N2C)N(C)C3=O)cc1 (centres undefined)
T/C (dose: 8.0 mg/kg/injection, schedule: Q04DX003 (sc), vehicle: saline with Tween-80): 27 % of control
T/C (dose: 16.0 mg/kg/injection, schedule: Q04DX003 (sc), vehicle: saline with Tween-80): 25 % of control
T/C (dose: 32.0 mg/kg/injection, schedule: Q04DX003 (sc), vehicle: saline with Tween-80): 3 % of control

CC(/C=C/C=C/C=C/C=C/C=C/C(O)=C1/C(=O)C(CCC(=O)O)N(C)C1=O)=C\C(C)C(OC1CC(O)C(O)C(C)O1)C(C)C (centres undefined)
T/C (dose: 8.0 mg/kg/injection, schedule: Q04DX003 (ip), vehicle: water): 62 % of control
T/C (dose: 15.88 mg/kg/injection, schedule: Q04DX003 (ip), vehicle: water): 115 % of control
T/C (dose: 16.0 mg/kg/injection, schedule: Q04DX003 (ip), vehicle: water): 57 % of control
T/C (dose: 31.75 mg/kg/injection, schedule: Q04DX003 (ip), vehicle: water): 97 % of control
T/C (dose: 32.0 mg/kg/injection, schedule: Q04DX003 (ip), vehicle: water): 95 % of control
T/C (dose: 62.5 mg/kg/injection, schedule: Q04DX003 (ip), vehicle: water): 63 % of control
T/C (dose: 64.0 mg/kg/injection, schedule: Q04DX003 (ip), vehicle: water): 58 % of control
T/C (dose: 125.0 mg/kg/injection, schedule: Q04DX003 (ip), vehicle: water): 50 % of control

O=NNc1cccnc1
T/C (dose: 25.0 mg/kg/injection, schedule: Q04DX003 (ip), vehicle: water): 103 % of control and 113 % of control
T/C (dose: 50.0 mg/kg/injection, schedule: Q04DX003 (ip), vehicle: water): 108 % of control

CCCCCCSc1nc(COC(=O)NC)c(COC(=O)NC)n1C
T/C (dose: 33.7 mg/kg/injection, schedule: Q04DX003 (ip), vehicle: saline): 100 % of control
T/C (dose: 135.0 mg/kg/injection, schedule: Q04DX003 (ip), vehicle: saline): 23 % of control

C[C@]12CC[C@@H]3c4ccc(OC(=O)Cc5ccc(N(CCCl)CCCl)cc5)cc4CC[C@H]3[C@@H]1CC[C@@H]2OC(=O)Cc1ccc(N(CCCl)CCCl)cc1
T/C (dose: 300.0 mg/kg/injection, schedule: Q04DX003 (sc), vehicle: saline with Tween-80): 98 % of control
T/C [1]: 24 % of control
T/C (dose: 1200.0 mg/kg/injection, schedule: Q04DX003 (sc), vehicle: saline with Tween-80): 7 % of control

CCC(=O)[O][Bi]([c]1ccccc1)[c]1ccccc1
T/C (dose: 12.5 mg/kg/injection, schedule: Q04DX003 (ip), vehicle: Klucel (hydroxypropylcellulose) (HPC)): 100 % of control
T/C (dose: 25.0 mg/kg/injection, schedule: Q04DX003 (ip), vehicle: Klucel (hydroxypropylcellulose) (HPC)): 77 % of control

NC(CSSCC(N)C(=O)O)C(=O)O (centres undefined)
T/C (dose: 300.0 mg/kg/injection, schedule: Q04DX003 (ip), vehicle: saline): 88 % of control
T/C (dose: 600.0 mg/kg/injection, schedule: Q04DX003 (ip), vehicle: saline): 92 % of control
T/C (dose: 1200.0 mg/kg/injection, schedule: Q04DX003 (ip), vehicle: saline): 104 % of control
T/C (dose: 2400.0 mg/kg/injection, schedule: Q04DX003 (ip), vehicle: saline): 80 % of control

CCc1ccc(C2=C(O)C(=O)C(c3ccc(CC)cc3)=C(O)C2=O)cc1
T/C (dose: 200.0 mg/kg/injection, schedule: Q04DX003 (sc), vehicle: saline with Tween-80): 67 % of control

CN1CCN(c2ccc([N+](=O)[O-])c3no[n+]([O-])c23)CC1
T/C (dose: 37.5 mg/kg/injection, schedule: Q04DX003 (sc), vehicle: saline with Tween-80): 117 % of control
T/C (dose: 75.0 mg/kg/injection, schedule: Q04DX003 (sc), vehicle: saline with Tween-80): 83 % of control
T/C (dose: 150.0 mg/kg/injection, schedule: Q04DX003 (sc), vehicle: saline with Tween-80): 72 % of control

O=C(O)c1ccc(C(=O)O)c(C(=O)O)c1.[NH-]C1CCCCC1[NH-].[Pt+2]
T/C (dose: 3.12 mg/kg/injection, schedule: Q01DX010 (sc), vehicle: sodium bicarbonate): 74 % of control
T/C (dose: 6.25 mg/kg/injection, schedule: Q01DX010 (sc), vehicle: sodium bicarbonate): 40 % of control
T/C (dose: 12.5 mg/kg/injection, schedule: Q01DX010 (sc), vehicle: sodium bicarbonate): 6 % of control

CC(=O)C(=O)O.CC(=O)C(=O)O.[NH-]C1CCCCC1[NH-].[Pt+2] (centres undefined)
T/C (dose: 12.5 mg/kg/injection, schedule: Q04DX003 (sc), vehicle: other): 72 % of control
T/C (dose: 25.0 mg/kg/injection, schedule: Q04DX003 (sc), vehicle: other): 17 % of control
T/C (dose: 50.0 mg/kg/injection, schedule: Q04DX003 (sc), vehicle: other): -78 % of control

COC1=C(C)C(=O)C2=C(C1=O)C(CO)N1C(C#N)C3CC4C(C1C2N1CCOC41)N3C (centres undefined)
T/C (dose: 0.9 mg/kg/injection, schedule: Q04DX003 (ip), vehicle: acid diluted with saline): 55 % of control
T/C (dose: 1.25 mg/kg/injection, schedule: Q04DX003 (ip), vehicle: acid diluted with saline): 35 % of control
T/C (dose: 1.5 mg/kg/injection, schedule: Q04DX003 (ip), vehicle: acid diluted with saline): 19 % of control
T/C (dose: 2.5 mg/kg/injection, schedule: Q04DX003 (ip), vehicle: acid diluted with saline): 17 % of control and 19 % of control
T/C (dose: 2.5 mg/kg/injection, schedule: Q04DX003 (ip), vehicle: saline + alcohol): 50 % of control
T/C (dose: 5.0 mg/kg/injection, schedule: Q04DX003 (ip), vehicle: saline + alcohol): 42 % of control

NS(=O)(=O)OCCCCCCCOS(N)(=O)=O
T/C (dose: 150.0 mg/kg/injection, schedule: Q04DX003 (ip), vehicle: saline with Tween-80): -40 % of control

CC(=O)ON(C(C)=O)c1ccc(C(N)=O)cc1
T/C [1]: 52 % of control
T/C (dose: 2400.0 mg/kg/injection, schedule: Q04DX003 (sc), vehicle: saline with Tween-80): 98 % of control

COc1cc2cc3c(c(O)c2c(O)c1/C=C/C(C)C)C(=O)CC(C)(OC(C)=O)C3 (centres undefined)
T/C (dose: 5.0 mg/kg/injection, schedule: Q04DX003 (ip), vehicle: Klucel (hydroxypropylcellulose) (HPC)): 85 % of control
T/C (dose: 10.0 mg/kg/injection, schedule: Q04DX003 (ip), vehicle: Klucel (hydroxypropylcellulose) (HPC)): 66 % of control
T/C (dose: 20.0 mg/kg/injection, schedule: Q04DX003 (ip), vehicle: Klucel (hydroxypropylcellulose) (HPC)): 63 % of control

NC1(C(=O)O)CCCC1
T/C (dose: 25.0 mg/kg/injection, schedule: Q01DX010 (sc), vehicle: saline): 73 % of control
T/C (dose: 50.0 mg/kg/injection, schedule: Q01DX010 (sc), vehicle: saline): 31 % of control

CCCCCCCC(=O)OCC(=O)[C@]1(O)Cc2c(O)c3c(c(O)c2[C@@H](OC2CC(N)C(O)C(C)O2)C1)C(=O)c1c(OC)cccc1C3=O (some centres undefined)
T/C (dose: 2.0 mg/kg/injection, schedule: Q01DX010 (ip), vehicle: suspension in saline): 4 % of control
T/C (dose: 2.0 mg/kg/injection, schedule: Q01DX010 (sc), vehicle: saline): 121 % of control
T/C (dose: 2.0 mg/kg/injection, schedule: Q04DX003 (ip), vehicle: saline): 53 % of control
T/C (dose: 4.0 mg/kg/injection, schedule: Q01DX010 (ip), vehicle: suspension in saline): 5 % of control
T/C (dose: 4.0 mg/kg/injection, schedule: Q01DX010 (sc), vehicle: saline): 20 % of control
T/C (dose: 4.0 mg/kg/injection, schedule: Q04DX003 (ip), vehicle: saline): 27 % of control
T/C (dose: 8.0 mg/kg/injection, schedule: Q01DX010 (sc), vehicle: saline): 2 % of control
T/C (dose: 8.0 mg/kg/injection, schedule: Q04DX003 (ip), vehicle: saline): 5 % of control
